Molecular target: T1, Human Neutrophil Elastase (HNE) (Homo sapiens, UniProt P08246)
T1 construct: Human Neutrophil Elastase (HNE) purified from serum (Calbiochem art. 324681); purchased Calbiochem 324681; host or cells: natural human material (serum)
T1 sequence (P08246 30-267): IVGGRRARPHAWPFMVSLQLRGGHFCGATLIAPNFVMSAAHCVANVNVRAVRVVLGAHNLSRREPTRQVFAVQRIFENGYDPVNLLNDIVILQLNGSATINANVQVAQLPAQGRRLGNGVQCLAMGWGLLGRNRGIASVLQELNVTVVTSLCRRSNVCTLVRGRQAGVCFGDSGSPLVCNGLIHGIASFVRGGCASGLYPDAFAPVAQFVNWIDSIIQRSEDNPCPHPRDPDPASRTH
Experiment: Human Neutrophil Elastase Quenched-FRET Assay
Assay type: biochemical
Conditions: HNE purified from serum; substrate MeOSuc-AAPV-AMC; 15 min pre-incubation, 30 min incubation at room temperature; read-out: Inhibition of Human Neutrophil Elastase IC50
Description: Human Neutrophil Elastase Quenched-FRET Assay
The assay uses Human Neutrophil Elastase (HNE) purified from serum (Calbiochem art. 324681; Ref. Baugh, R. J. et al., 1976, Biochemistry. 15, 836-841). HNE was stored in 50 mM NaOAc, 200 mM NaCl, pH 5.5 with added 30% glycerol at −20° C. The protease substrate used was Elastase Substrate V Fluorogenic, MeOSuc-AAPV-AMC (Calbiochem art. 324740; Ref. Castillo, M. J. et al., 1979, Anal. Biochem. 99, 53-64). The substrate was stored in DMSO at −20° C. The assay additions were as follows: Test compounds and controls were added to black 96-well flat-bottom plates (Greiner 655076), 1 μL in 100% DMSO, followed by 30 μL HNE in assay buffer with 0.01% TritonX-100. The assay buffer constitution was: 100 mM Tris (pH 7.5) and 500 mM NaCl. The enzyme and the compounds were incubated at room temperature for 15 minutes. Then 30 μl substrate in assay buffer was added. The assay was stopped after 30 minutes incubation at room temperature by adding 60 μl stop solution (140 mM acetic acid, 200 mM sodium monochloroacetate, 60 mM sodium acetate, pH 4.3). Fluorescence was measured on a Wallac 1420 Victor 2 instrument at settings: Excitation 380 nm, Emission 460 nm. IC50 values were determined using Xlfit curve fitting using model 205.

Row | SMILES | IC50 [nM]
1 | N#CC1CCC(CNC(=O)c2nc3ccccc3n(-c3cccc(C(F)(F)F)c3)c2=O)CC1 (stereo not drawn) [Example 2.10, N-[(4-Cyanocyclohexyl)methyl]-3-oxo-4-[3-(trifluoromethyl)phenyl]-3,4-dihydroquinoxaline-2-carboxamide] | 248
2 | Cc1ccc(CNC(=O)c2nc3ccccc3n(-c3cccc(C(F)(F)F)c3)c2=O)cc1 [Example 2.12, N-(4-Methylbenzyl)-3-oxo-4-[3-(trifluoromethyl)phenyl]-3,4-dihydroquinoxaline-2-carboxamide] | 226
3 | O=C(NCCc1ccc(F)cc1)c1nc2ccccc2n(-c2cccc(C(F)(F)F)c2)c1=O [Example 2.20, N-[2-(4-Fluorophenyl)ethyl]-3-oxo-4-[3-(trifluoromethyl)phenyl]-3,4-dihydroquinoxaline-2-carboxamide] | 573

Reference: patent US20060270666A1, “Quinoxaline derivatives as neutrophil elastase inhibitors and their use” (priority 2003, published 2006)
